Publication PMC3531425, “Low Resolution Solution Structure of HAMLET and the Importance of Its Alpha-Domains in Tumoricidal Activity” (PLoS ONE, 2012)

B1: HAMLET (protein)
chain: KQFTKCELSQLLKDIDGYGGIALPELICTMFHTSGYDTQAIVENNESTEYGLFQISNKLWCKSSQVPQSRNICDISCDKFLDDDITDDIMCAKKILDIKGIDYWLAHKALCTEKLEQWLCEKL

Test system: not listed separately
Assay: Solubility of biotinylated peptide (remark)
Format: physicochemical
Conditions: added at 12 µM instead of 105 uM

Molecule	Solubility
GLFQISNKLWAKSSQ [Peptide 6, 15-amino-acid peptide of α-lactalbumin library]	lower solubility

Test system: A549 cells
Assay: Ca^2+ flux, Fluo-4 NW calcium assay, fluorometry
Format: cell-based, human
Conditions: HAMLET or sodium oleate alone, Fluo-4, mean of at least two experiments
Method: (§1) To quantify the ion fluxes, fluorometry was measured in a plate reader (TECAN infinite F200, Tecan Group, Switzerland). For calcium fluxes measurement, the Fluo-4 NW calcium assay kit (Invitrogen) was used. For K^+ fluxes, the FluxOR™ potassium ion channel assay (Invitrogen) was used according to the manufacturer's instructions but component E was excluded. Briefly, cells were incubated with FluxOR™, which is a Tl^+ indicator. An increase in fluorescence signal corresponds to an influx of Tl^+, indicating opening of potassium channels, which was measured at 535 nm after excitation at 485 nm in the TECAN infinite plate reader. Given the driving force for K^+ flux across the plasma membrane this corresponds to K^+ efflux. Calcium and potassium fluxes was measured in 20 000 A549 cells plated in a 96-well plate. Sodium was measured in 100 000 Jurkat cells using the CoroNa Green Sodium Indicator (Invitrogen).

Molecule	Ca^2+ flux, substance alone
CCCCCCCC/C=C\CCCCCCCC(=O)O [Sodium oleate, sodium oleate, reference compound]	not observed
B1	rapid and sustained

Same assay, conditions: peptide mixed with sodium oleate, Fluo-4 fluorescence

Molecule	Ca^2+ flux, + oleate
ATEKLEQWLAEKL [Peptide 12, C-terminal peptide of α-lactalbumin library]	No
AKSSQVPQSRNIADI [Peptide 7, 15-amino-acid peptide of α-lactalbumin library]	No
NIADISADKFLDDDI [Peptide 8, 15-amino-acid peptide of α-lactalbumin library]	No
LLKDIDGYGGIALPE [Peptide 2, 15-amino-acid peptide of α-lactalbumin library]	No
KQFTKAELSQLLKDI [Peptide 1, 15-amino-acid peptide of α-lactalbumin library, numbered from the N-terminal]	No
IVENNESTEYGLFQI [Peptide 5, 15-amino-acid peptide of α-lactalbumin library]	No
AAKKILDIKGIDYWL [Peptide 10, 15-amino-acid peptide of α-lactalbumin library]	weaker Ca^2+ flux
IALPELIATMFHTSG [Peptide 3, 15-amino-acid peptide of α-lactalbumin library]	No
LDDDITDDIMAAKKI [Peptide 9, 15-amino-acid peptide of α-lactalbumin library]	No
FHTSGYDTQAIVENN [Peptide 4, 15-amino-acid peptide of α-lactalbumin library]	No
GLFQISNKLWAKSSQ [Peptide 6, 15-amino-acid peptide of α-lactalbumin library]	weaker Ca^2+ flux
IDYWLAHKALATEKL [Peptide 11, 15-amino-acid peptide of α-lactalbumin library]	increased Ca^2+ fluxes and Yes

Same assay, conditions: peptide without sodium oleate, Fluo-4 fluorescence

Molecule	Ca^2+ flux, - oleate
ATEKLEQWLAEKL [Peptide 12, C-terminal peptide of α-lactalbumin library]	No
AKSSQVPQSRNIADI [Peptide 7, 15-amino-acid peptide of α-lactalbumin library]	No
NIADISADKFLDDDI [Peptide 8, 15-amino-acid peptide of α-lactalbumin library]	No
LLKDIDGYGGIALPE [Peptide 2, 15-amino-acid peptide of α-lactalbumin library]	No
KQFTKAELSQLLKDI [Peptide 1, 15-amino-acid peptide of α-lactalbumin library, numbered from the N-terminal]	No
IVENNESTEYGLFQI [Peptide 5, 15-amino-acid peptide of α-lactalbumin library]	No
AAKKILDIKGIDYWL [Peptide 10, 15-amino-acid peptide of α-lactalbumin library]	weaker Ca^2+ flux
IALPELIATMFHTSG [Peptide 3, 15-amino-acid peptide of α-lactalbumin library]	No
LDDDITDDIMAAKKI [Peptide 9, 15-amino-acid peptide of α-lactalbumin library]	No
FHTSGYDTQAIVENN [Peptide 4, 15-amino-acid peptide of α-lactalbumin library]	No
GLFQISNKLWAKSSQ [Peptide 6, 15-amino-acid peptide of α-lactalbumin library]	No
IDYWLAHKALATEKL [Peptide 11, 15-amino-acid peptide of α-lactalbumin library]	increased Ca^2+ fluxes and Yes

Test system: A549 cells
Assay: K^+ flux, FluxOR potassium ion channel assay (Tl^+ influx), fluorometry
Format: cell-based, human
Conditions: HAMLET or sodium oleate alone, FluxOR, mean of at least two experiments
Method: as §1

Molecule	K^+ flux, substance alone
CCCCCCCC/C=C\CCCCCCCC(=O)O [Sodium oleate, sodium oleate, reference compound]	significant K^+ fluxes
B1	rapid and sustained

Same assay, conditions: peptide mixed with sodium oleate, FluxOR fluorescence

Molecule	K^+ flux, + oleate
ATEKLEQWLAEKL [Peptide 12, C-terminal peptide of α-lactalbumin library]	No
AKSSQVPQSRNIADI [Peptide 7, 15-amino-acid peptide of α-lactalbumin library]	No
NIADISADKFLDDDI [Peptide 8, 15-amino-acid peptide of α-lactalbumin library]	No
LLKDIDGYGGIALPE [Peptide 2, 15-amino-acid peptide of α-lactalbumin library]	No
KQFTKAELSQLLKDI [Peptide 1, 15-amino-acid peptide of α-lactalbumin library, numbered from the N-terminal]	triggered K^+ fluxes and Yes
IVENNESTEYGLFQI [Peptide 5, 15-amino-acid peptide of α-lactalbumin library]	No
AAKKILDIKGIDYWL [Peptide 10, 15-amino-acid peptide of α-lactalbumin library]	No
IALPELIATMFHTSG [Peptide 3, 15-amino-acid peptide of α-lactalbumin library]	No
LDDDITDDIMAAKKI [Peptide 9, 15-amino-acid peptide of α-lactalbumin library]	No
FHTSGYDTQAIVENN [Peptide 4, 15-amino-acid peptide of α-lactalbumin library]	No
GLFQISNKLWAKSSQ [Peptide 6, 15-amino-acid peptide of α-lactalbumin library]	No
IDYWLAHKALATEKL [Peptide 11, 15-amino-acid peptide of α-lactalbumin library]	triggered K^+ fluxes and Yes

Same assay, conditions: peptide without sodium oleate, FluxOR fluorescence

Molecule	K^+ flux, - oleate
ATEKLEQWLAEKL [Peptide 12, C-terminal peptide of α-lactalbumin library]	No
AKSSQVPQSRNIADI [Peptide 7, 15-amino-acid peptide of α-lactalbumin library]	No
NIADISADKFLDDDI [Peptide 8, 15-amino-acid peptide of α-lactalbumin library]	No
LLKDIDGYGGIALPE [Peptide 2, 15-amino-acid peptide of α-lactalbumin library]	No
KQFTKAELSQLLKDI [Peptide 1, 15-amino-acid peptide of α-lactalbumin library, numbered from the N-terminal]	triggered K^+ fluxes and Yes
IVENNESTEYGLFQI [Peptide 5, 15-amino-acid peptide of α-lactalbumin library]	No
AAKKILDIKGIDYWL [Peptide 10, 15-amino-acid peptide of α-lactalbumin library]	No
IALPELIATMFHTSG [Peptide 3, 15-amino-acid peptide of α-lactalbumin library]	No
LDDDITDDIMAAKKI [Peptide 9, 15-amino-acid peptide of α-lactalbumin library]	No
FHTSGYDTQAIVENN [Peptide 4, 15-amino-acid peptide of α-lactalbumin library]	No
GLFQISNKLWAKSSQ [Peptide 6, 15-amino-acid peptide of α-lactalbumin library]	No
IDYWLAHKALATEKL [Peptide 11, 15-amino-acid peptide of α-lactalbumin library]	triggered K^+ fluxes and Yes

Test system: glioblastomas, papillomas and bladder cancer
Assay: not given
Conditions: ref [1]–[3]; cited from earlier work
Source text: Healthy, differentiated cells are much less sensitive to HAMLET and toxic effects on healthy tissues have not been observed in tumor models.

Molecule	Therapeutic efficacy in vivo
B1	therapeutic efficacy

Test system: not listed separately
Assay: Small angle X-ray scattering, state in solution
Format: physicochemical
Conditions: SAXS forward scattering vs BSA reference; 2.5 and 6.5 mg/ml in phosphate-buffered saline; 15 °C
Source text: Small angle X-ray scattering (SAXS) data for HAMLET were collected at the German Electron Synchrotron (DESY) of the EMBL Hamburg using the X33 SAXS camera, [19] located on a bending magnet (sector D) on the storage ring DORIS III. Pilatus 1 M pixel detector (67×420 mm^2) that operates in single photon counting mode was used. A sample - detector distance of 2.4 m which covers the range of momentum transfer 0.1<s<4.5 nm^−1 (s = 4π sin(q)/λ, where q is the scattering angle and λ = 0.15 nm is the X-ray wavelength) was utilized. The calibration of the s-axis was done by the scattering pattern of Silver-behenate salt (d-spacing 5.84 nm). For each sample measurement the scattering from the buffer was measured before and after. The average scattering for the before and after buffer measured was calculated and it is used for background subtraction for each sample. In order to assess and remove any concentration-dependant inter-particle effects for HAMLET, the protein concentrations 2.5 and 6.5 mg/ml in phosphate-buffered saline were used for the measurement. Automated sample-changing robot was used for injecting the protein as well as the buffer samples at the SAXS station X33 [20]. […]
By comparing the forward scattering from the reference solution of bovine serum albumin (BSA), the molecular mass of HAMLET was calculated as described in [18]. […]

Molecule	Oligomeric state in solution
B1	monomeric

Same assay, conditions: SAXS; 2.5 and 6.5 mg/ml in phosphate-buffered saline; 15 °C

Molecule	Protein aggregation (Guinier plot)
B1	no protein aggregation

Test system: Jurkat cells
Assay: Na^+ flux, CoroNa Green Sodium Indicator, fluorometry
Format: cell-based, human
Conditions: HAMLET or sodium oleate alone, CoroNa Green, mean of at least two experiments
Method: as §1

Molecule	Na^+ flux, substance alone
CCCCCCCC/C=C\CCCCCCCC(=O)O [Sodium oleate, sodium oleate, reference compound]	not observed
B1	Na^+ fluxes

Same assay, conditions: peptide mixed with sodium oleate, CoroNa Green fluorescence

Molecule	Na^+ flux, + oleate
ATEKLEQWLAEKL [Peptide 12, C-terminal peptide of α-lactalbumin library]	No
AKSSQVPQSRNIADI [Peptide 7, 15-amino-acid peptide of α-lactalbumin library]	No
NIADISADKFLDDDI [Peptide 8, 15-amino-acid peptide of α-lactalbumin library]	No
LLKDIDGYGGIALPE [Peptide 2, 15-amino-acid peptide of α-lactalbumin library]	No
KQFTKAELSQLLKDI [Peptide 1, 15-amino-acid peptide of α-lactalbumin library, numbered from the N-terminal]	No
IVENNESTEYGLFQI [Peptide 5, 15-amino-acid peptide of α-lactalbumin library]	No
AAKKILDIKGIDYWL [Peptide 10, 15-amino-acid peptide of α-lactalbumin library]	Weak Na^+ fluxes
IALPELIATMFHTSG [Peptide 3, 15-amino-acid peptide of α-lactalbumin library]	No
LDDDITDDIMAAKKI [Peptide 9, 15-amino-acid peptide of α-lactalbumin library]	No
FHTSGYDTQAIVENN [Peptide 4, 15-amino-acid peptide of α-lactalbumin library]	No
GLFQISNKLWAKSSQ [Peptide 6, 15-amino-acid peptide of α-lactalbumin library]	Weak Na^+ fluxes
IDYWLAHKALATEKL [Peptide 11, 15-amino-acid peptide of α-lactalbumin library]	No

Same assay, conditions: peptide without sodium oleate, CoroNa Green fluorescence

Molecule	Na^+ flux, - oleate
ATEKLEQWLAEKL [Peptide 12, C-terminal peptide of α-lactalbumin library]	No
AKSSQVPQSRNIADI [Peptide 7, 15-amino-acid peptide of α-lactalbumin library]	No
NIADISADKFLDDDI [Peptide 8, 15-amino-acid peptide of α-lactalbumin library]	No
LLKDIDGYGGIALPE [Peptide 2, 15-amino-acid peptide of α-lactalbumin library]	No
KQFTKAELSQLLKDI [Peptide 1, 15-amino-acid peptide of α-lactalbumin library, numbered from the N-terminal]	No
IVENNESTEYGLFQI [Peptide 5, 15-amino-acid peptide of α-lactalbumin library]	No
IALPELIATMFHTSG [Peptide 3, 15-amino-acid peptide of α-lactalbumin library]	No
LDDDITDDIMAAKKI [Peptide 9, 15-amino-acid peptide of α-lactalbumin library]	No
FHTSGYDTQAIVENN [Peptide 4, 15-amino-acid peptide of α-lactalbumin library]	No
IDYWLAHKALATEKL [Peptide 11, 15-amino-acid peptide of α-lactalbumin library]	No

Test system: A549 lung carcinoma cells
Assay: Cell morphology by phase holographic imaging and transmission DIC
Format: cell-based, human
Conditions: A549; 1 h
Method: For cellular uptake assays, A549 lung carcinoma cells were grown overnight on 8-well chamber slides (Nalge Nunc, Rochester, NY). Cells were incubated 1 hour with 35 μM biotinylated peptide with or without 175 μM sodium oleate (Sigma) in serum free RPMI media, followed by fixation (4% paraformaldehyde) and permeabilization (0.25% Triton X-100, 5% FCS in phosphate-buffered saline). Peptides were visualized by incubation with streptavidin-Alexa568 (Molecular Probes) and Wheat Germ Agglutinin (WGA) (Molecular Probes) was used to visualize plasma and nuclear membranes. Images were captured on a LSM510 META confocal microscope (Carl Zeiss, Jena, Germany) with pinhole settings corresponding to one airy unit. Quantification of fluorescence intensities was performed with the ImageJ software. The HoloMonitorTM M3 digital holographic microscope (Phase Holographic Imaging AB, Lund, Sweden) records 3D information of cells using interfering wave fronts induced by the exposure to a 0.8 mW HeNe laser (633 nm), resembling a Mach-Zender interferometer where the cells, placed in one of the interfering wave fronts, induce a phase difference between the two beams [26]-[28]. The interference pattern (hologram) is recorded on a digital sensor and is used to reconstruct the amplitude and phase of the object as described, [30]. […]

Molecule	Cell morphology by transmission light DIC, oleate-free peptide or oleate alone
CCCCCCCC/C=C\CCCCCCCC(=O)O [Sodium oleate, sodium oleate, reference compound]	remain as flat and extended

Same assay, conditions: adherent A549 cells; HAMLET or peptide-oleate mixture; images every 15 minutes

Molecule	Morphological change by holographic imaging
B1	increase in cellular optical thickness and a reduction in adherent surface area after 30 minutes, followed by cell detachment at later time points

Test system: lung carcinoma or leukemia cells
Assay: Tumor cell death (ATP level, PrestoBlue), cell line not given
Format: cell-based, human
Conditions: 3 hours; HAMLET (positive control) or peptide mixed with sodium oleate; cell line not given
Method: A549 human lung carcinoma cell line and the Jurkat human acute T-cell leukemia cell line (obtained from ATCC, Manassas, VA, USA) were cultured in RPMI-1640 with non-essential amino acids (1∶100), 1 mM sodium pyruvate (all from PAA, Pasching, Austria), […] Gentamicin (Gibco, Paisley, UK) and 5% fetal calf serum (FCS) at 37°C, 5% CO2. Cells (5*10^5 cells/ml for A549 cells, 1*10^6 cells/ml for Jurkat cells) in suspension were incubated with either […] or peptide-oleate mixtures in serum-free RPMI-1640 at 37°C, 5% CO2. 5% FCS was added after 1 hour. Cell death was quantified by ATP level measurement (ATPlite Kit, PerkinElmer, Waltham, MA, Infinite F200, Tecan Group Ltd., Männedorf, Switzerland) and by using PrestoBlueTM Cell Viability Reagent (Invitrogen, Carlsbad, CA).

Molecule	Reduction of cell viability
B1	90%

Same assay, conditions: sodium oleate alone; 3 hours

Molecule	Tumor cell killing in the absence of peptide
CCCCCCCC/C=C\CCCCCCCC(=O)O [Sodium oleate, sodium oleate, reference compound]	did not kill the tumor cells
